US20040248171A1, “Cancer monitoring by aberrant promotor methylation of the transcription factor genes PAX5 alpha PAX5 beta, novel loop helix loop protein, novel gene 2, and beta 3 genes” (Lovelace Respiratory Research Institute, priority 2001, published 2004)

Experiments:
Format in all cases: cell-based, human
[1] = system: PAX5 α gene expression; assay: RT-PCR analysis for expression of the PAX5 α gene after DAC treatment; details: for PAX5 α transcript expression: 1 μM DAC, 72 h
Method: (§1) Reverse transcription-PCR (RT-PCR) was conducted on cDNA from three breast cancer cell lines (MCF7, MDA-MB 231, and T47D) and one lung cancer cell line (Calu6) to determine the relationship between methylation of the PAX5 α and β genes and transcription. […] Reference is made to FIG. 3A, showing an MSP analysis of breast and lung cancer cell lines. Bisulfite-modified DNA was amplified with stage-2 primers specific for methylated alleles. […] Expression of the PAX5 α and β genes was restored in non-expressing cell lines following DAC treatment. Expression of the β-actin gene was determined as a control for RNA integrity.
(§2) 5-Aza-2′-deoxycytidine Treatment and RT-PCR. Re-expression studies were performed using three breast cancer cell lines (MCF7, MDA-MB-23 1, and T47D) and one lung cancer cell line (Calu6). Cell lines were treated for 3 days in culture media with 1 μM DAC (Sigma Chemical Co.). Total RNA was prepared using Trizol (Life Technologies, Inc.), and 3 μg aliquots were reverse-transcribed using the Superscript kit (Life Technologies, Inc.). The expression of the PAX5 α and β transcripts were determined by reverse transcription (RT)-PCR using the exon 1α forward primer (5′-[…]-3′) and the exon 1β forward primer (5′-[…]-3′) with an exon 2 reverse primer (5′-[…]-3′). β-actin was also amplified as a control for RNA integrity.
(§3) PCR amplification was performed at 94° C. for 10 min; then 35 cycles of 94° C. for 30 s, 64° C. for 30 s, and 72° C. for 30 s; and a 5-min final extension at 72° C. PCR products were analyzed on a 3% agarose gel containing ethidium bromide and visualized under UV illumination.

[2] = system: PAX5 β gene expression; assay: RT-PCR analysis for expression of the PAX5 β gene after DAC treatment
Method: as §1
as §2, with “Cell lines were treated for 3 days in culture media with 1 μM DAC (Sigma Chemical Co.). Total RNA was prepared using Trizol (Life Technologies, Inc.), and 3 μg aliquots were reverse-transcribed using the Superscript kit (Life Technologies, Inc.).” left out
as §3

[3] = system: β-actin gene expression; assay: RT-PCR analysis for expression of the housekeeping gene β-actin after DAC treatment; details: MCF7, MDA-MB 231, T47D, Calu6 cell lines, 1 μM DAC, 72 h
Method: as §1
as §2, with “Cell lines were treated for 3 days in culture media with 1 μM DAC (Sigma Chemical Co.). Total RNA was prepared using Trizol (Life Technologies, Inc.), and 3 μg aliquots were reverse-transcribed using the Superscript kit (Life Technologies, Inc.).” left out
as §3

[4] = non-expressing breast and lung cancer cell lines, 1 μM DAC for 72 h (FIG. 3B)

Q: What does the source list for Nc1ncn([C@H]2C[C@H](O)[C@@H](CO)O2)c(=O)n1 [DAC, 5-Aza-2′-deoxycytidine]?
A: PAX5 α transcript expression ([1]; Calu6 lung cancer cell line): increased expression; PAX5 α transcript expression ([1]; MDA-MB231 breast cancer cell line): restored expression; PAX5 α transcript expression ([1]; T47D breast cancer cell line): restored expression; Expression of the PAX5 α gene [1, 4]: restored; Expression of the PAX5 β gene [2, 4]: restored; PAX5 β transcript expression ([2]; the other three cell lines (MCF7, MDA-MB 231, Calu6), 1 μM DAC, 72 h): restored expression; expression of the housekeeping gene β-actin [3]: did not affect
